We go through 28 molecules from patent publication US5314896A, “1,3-substituted cycloalkenes and cycloalkanes as central nervous system agents” (priority 1992, dated 1994).

Like-named read-outs stand apart in the source and are kept apart here.

Assay [1] has as its system Locomotor Activity in Mice. As to the kind of experiment: Inhibition of locomotor activity in mice. The format is in vivo. To be noted: for ED50: Mus musculus. As to the method: (§1) The compounds of Formula I are valuable dopaminergic agents. […] Thus, the compounds of Formula I were tested for their ability to inhibit locomotor activity in mice and rats, a measure of antipsychotic activity, according to the assay described by J. R. McLean, et al, Pharmacology, Biochemistry and Behavior, Vol. 8, pages 97-99 (1978); for their ability to bind to dopamine receptors as measured by their inhibition of [^3 H]spiroperidol binding in a receptor assay described by D. Grigoriadis and P. Seeman, Journal of Neurochemistry, Vol. 44, pages 1925-1935 (1985); and for their ability to effect dopamine synthesis in rats according to the protocol described by J. R. Walters and R. H. Roth, Naunyn-Schmiedebero's Archives of Pharmacology, Vol. 296, pages 5-14 (1976). The above test methods are incorporated herein by reference. The data in the table show the dopaminergic activity of representative compounds of Formula I.

Assay [2] deals with Brain Dopamine Synthesis. As to the kind of experiment: % effects on brain dopamine synthesis in rats. To be noted: Rattus norvegicus. The format is in vivo. As to the method: as §1
Assay [3] has as its target dopamine receptors. As to the kind of experiment: Inhibition of [^3 H] spiroperidol binding. As to the method:
as §1

The mark [4] stands for this setting: ip, read-out: Inhibition of Locomotor Activity in Mice ED50, mice, IP (Table 1).
Setting [5] is: ip, read-out: % Effects on Brain Dopamine Synthesis in Rats, rats, 10 mg/kg, IP (Table 1).
Where [6] appears, read: ip, read-out: Inhibition of Locomotor Activity in Mice ED50, mice, IP (Table 2).
[7] abbreviates: rats, 10 mg/kg, IP (Table 1), read-out: % Effects on Brain Dopamine Synthesis in Rats.
Where [8] appears, read: mice, IP (Table 1), read-out: Inhibition of Locomotor Activity in Mice ED50.

As usually defined, the ED50 is the midpoint of the dose-response relation. As a reminder, the IC50 is the concentration that inhibits the measured activity by half. Lower therefore signals greater potency in that assay. As for `C1=C(c2ccccc2)CCN(CC2CCC=C(c3cccs3)C2)C1` (racemic) [Example 2, (±)-1,2,3,6-Tetrahydro-4-phenyl-1-[[3-(2-thienyl)-3-cyclohexen-1-yl]methyl]pyridine], the ED50 in assay [1] (setting [4]) came out at 1.8 mg/kg. The change in vivo at 10 mg/kg in assay [2] (setting [5]) is -9%. In assay [3] (Table 1), this molecule yielded an IC50 of 202 nM.

On to `C1=C(c2ccsc2)CCC[C@H]1CN1CC=C(c2ccccc2)CC1` [Example 15, (R)-1,2,3,6-tetrahydro-4-phenyl-1-[[3-(3-thienyl)-2-cyclohexen-1-yl]methyl]pyridine], for which, in assay [1] (setting [4]), the ED50 amounted to 1.3 mg/kg. The molecule also returned an IC50 in assay [3] (Table 1) of 251 nM.

As to `C1=C(c2ccccc2)CCC(N2CC=C(c3ccccc3)CC2)C1` (racemic) [A, (±)-1,2,3,6-tetrahydro-4-phenyl-1-(4-phenyl-3-cyclohexen-1-yl)pyridine, reference compound], the ED50 in assay [1] (setting [6]) is 12.9 mg/kg. This molecule had an IC50 in assay [3] (Table 2) of 1080 nM.

For `C1=C(c2ccccc2)CCN(CC2CCC=C(c3c[nH]c4ccccc34)C2)C1` (racemic) [Example 26, (±)-3-[5-[(3,6-dihydro-4-phenyl-1(2H)-pyridinyl)methyl]-1-cyclohexen-1-yl]-1H-indole], in assay [1] (setting [4]), the ED50 came to 2 mg/kg. Also, in assay [2] (setting [5]), the change in vivo at 10 mg/kg was -23%. In assay [3] (Table 1), this molecule gave an IC50 of 288 nM.

Turning to `C1=C(c2ccccc2)CCN(C[C@H]2C=C(c3cccs3)CCC2)C1.Cl` [Example 10a, (R)-1,2,3,6-tetrahydro-4-phenyl-1-[[3-(2-thienyl)-2-cyclohexen-1-yl]methyl]pyridine monohydrochloride], in assay [1] (setting [4]), the ED50 worked out at 1.5 mg/kg. Also, the change in vivo at 10 mg/kg in assay [2] (setting [5]) is -58%. Moreover, in assay [3] (Table 1), the IC50 worked out at 110 nM.

On to `Cc1ccc(C2=CCC[C@@H](CN3CC=C(c4ccccc4)CC3)C2)cc1` [Example 9, (R)-1,2,3,6-tetrahydro-1-[[3-(4-methylphenyl)-3-cyclohexen-1-yl]methyl]-4-phenylpyridine], for which the ED50 in assay [1] (setting [4]) turned out to be 0.8 mg/kg. In assay [2] (setting [5]), the change in vivo at 10 mg/kg is -42%. The same molecule gave an IC50 in assay [3] (Table 1) of 184 nM.

Regarding `C1=C(c2cccnc2)CCC[C@H]1CN1CC=C(c2ccccc2)CC1.Cl.Cl` [Example 12a, (R)-3-[3-[(3,6-dihydro-4-phenyl-1(2H)-pyridinyl)methyl]-1-cyclohexen-1-yl]pyridine dihydrochloride], the ED50 in assay [1] (setting [4]) turned out to be 0.07 mg/kg. Moreover, the change in vivo at 10 mg/kg in assay [2] (setting [5]) is -97%. In addition, in assay [3] (Table 1), the IC50 stood at 87 nM.

Regarding `C1=C(c2ccccc2)CCN(C[C@@H]2CCC=C(c3cncnc3)C2)C1.Cl` [Example 14, (R)-5-[5-[(3,6-dihydro-4-phenyl-1(2H)-pyridinyl)methyl]-1-cyclohexen-1-yl]pyrimidine monohydrochloride], in assay [1] (setting [4]), the ED50 is 0.4 mg/kg. Also, in assay [3] (Table 1), the IC50 was found to be 438 nM.

For `Fc1ccc(C2=CCCC(CN3CCN(c4ccccn4)CC3)C2)cc1` (racemic) [Example 5, (±)-1-[[3-(4-Fluorophenyl)-3-cyclohexen-1-yl]methyl]-4-(2-pyridinyl)piperazine], the ED50 in assay [1] (setting [4]) was found to be 1.2 mg/kg. Also, the change in vivo at 10 mg/kg in assay [2] (setting [7]) is -58%. In assay [3] (Table 1), this molecule yielded an IC50 of 143 nM.

`C1=C(c2ccccc2)CCN(CCC2CCC=C(c3ccccc3)C2)C1` (racemic) [Compound E, (±)-1,2,3,6-tetrahydro-4-phenyl-1-[2-(3-phenyl-3-cyclohexen-1-yl)ethyl]pyridine, reference compound]: in assay [1] (setting [6]), the ED50 was 10.9 mg/kg.

For `C1=C(c2ccccc2)CCN(C2CCC=C(c3ccccc3)C2)C1` (racemic) [D, (±)-1,2,3,6-tetrahydro-4-phenyl-1-(3-phenyl)-3-cyclohexen-1-yl)pyridine, reference compound], the ED50 in assay [1] (setting [6]) is 30 mg/kg. For the same molecule, the IC50 in assay [3] (Table 2) is 9210 nM.

With `C1=C(c2ccccc2)C[C@H](CN2CCN(c3ccccn3)CC2)CC1` [Example 21, (R)-1-[(3-Phenyl-3-cyclohexen-1-yl)methyl]-4-(2-pyridinyl)piperazine], in assay [1] (setting [8]), the ED50 is 9.9 mg/kg. For the same molecule, the change in vivo at 10 mg/kg in assay [2] (setting [7]) is -27%. Also, in assay [3] (Table 1), the IC50 is 76 nM.

Regarding `C1=C(c2ccccc2)CCC(CN2CC=C(c3ccccc3)CC2)C1` (racemic) [B, (±)-1,2,3,6-tetrahydro-4-phenyl-1-[(4-phenyl-3-cyclohexen-1-yl)methyl]pyridine, reference compound], the ED50 in assay [1] (setting [6]) was found to be 13.2 mg/kg. The IC50 in assay [3] (Table 2) amounted to 1000 nM.

As for `C1=C(c2ccccc2)CC(CN2CCN(c3ccccc3)CC2)CC1.Cl.Cl` (racemic) [Example 22, (±)-1-phenyl-4-[(3-phenyl-3-cyclohexen-1-yl)methyl]-piperazine dihydrochloride], the ED50 in assay [1] (setting [8]) was 2.1 mg/kg. The molecule also yielded an IC50 in assay [3] (Table 1) of 424 nM.

With `CN(C)c1ccc(C2=C[C@H](CN3CC=C(c4ccccc4)CC3)CCC2)cc1` [Example 16a, (R)-4-[3-[(3,6-dihydro-4-phenyl-1(2H)-pyridinyl)methyl]-1-cyclohexen-1-yl]-N,N-dimethylbenzeneamine], in assay [1] (setting [4]), the 50% effective dose (ED50) came to 0.7 mg/kg. In assay [3] (Table 1), this molecule gave an IC50 of 660 nM.

Take `C1=C(c2ccccc2)CCN(C[C@@H]2CCC=C(c3ccc4c(c3)OCO4)C2)C1.Cl` [Example 18, (R)-1-[[3-(1,3-benzodioxol-5-yl)-3-cyclohexen-1-yl]methyl]-1,2,3,6-tetrahydro-4-phenylpyridine monohydrochloride]: in assay [1] (setting [4]), the ED50 was 0.8 mg/kg. For the same molecule, the IC50 in assay [3] (Table 1) is 432 nM.

Take `C1=C(c2ccccc2)CCN(C[C@@H]2CCC[C@@H](c3ccccc3)C2)C1.Cl` [Example 20a, (1R-trans) 1,2,3,6-tetrahydro-4-phenyl-1-[(3-phenylcyclohexyl)methyl]pyridine monohydrochloride]: the ED50 in assay [1] (setting [4]) amounted to 0.5 mg/kg. In addition, the IC50 in assay [3] (Table 1) is 874 nM.

As for `C1=C(c2ccccc2)CCC(CCN2CC=C(c3ccccc3)CC2)C1` (racemic) [Compound C, (±)-1,2,3,6-tetrahydro-4-phenyl-1-[2-(4-phenyl-3-cyclohexen-1-yl)ethyl]pyridine, reference compound], the ED50 in assay [1] (setting [6]) turned out to be 5.8 mg/kg. This molecule also returned an IC50 in assay [3] (Table 2) of 8020 nM.

Consider `C1=C(c2ccccc2)CCC(CN2CCN(c3ccccn3)CC2)C1` (racemic) [Compound G, (±)-1-[(4-phenyl-3-cyclohexen-1-yl)methyl]-4-(2-pyridinyl)piperazine, reference compound], for which the ED50 in assay [1] (mice, IP (Table 2), read-out: Inhibition of Locomotor Activity in Mice ED50) was determined as 25.9 mg/kg. The molecule further displayed an IC50 in assay [3] (Table 2) of 11200 nM.

With `Clc1ccc(C2=C[C@H](CN3CC=C(c4ccccc4)CC3)CCC2)cc1` [Example 7a, (R)-1-[[3-(4-chlorophenyl)-2-cyclohexen-1-yl]methyl]-1,2,3,6-tetrahydro-4-phenylpyridine], the ED50 in assay [1] (setting [4]) was 7.5 mg/kg. Moreover, the IC50 in assay [3] (Table 1) was 2320 nM.

Regarding “(R)-1,2,3,6-tetrahydro-1-[[3-(2-methylphenyl)-2-cyclohexen-1-yl]methyl]-4-phenylpyridine monohydrochloride compound with (R)-1,2,3,6-tetrahydro-1-[[3-(2-methylphenyl)-3-cyclohexen-1-yl]methyl]-4-phenylpyridine [Example 13]”, the “Inhibition of Locomotor Activity in Mice ED50” value in assay [1] (mice, IP (Table 1)) was 2.3 mg/kg.

For the molecule `C1=C(c2ccccc2)CC(CN2CCN(c3ncccn3)CC2)CC1` (racemic) [Example 23, (±)-2-[4-[[3-phenyl-3-cyclohexen-1-yl)methyl]-1-piperazinyl]pyrimidine], the ED50 in assay [1] (setting [8]) came to 8.5 mg/kg. In addition, in assay [3] (Table 1), the IC50 stood at 354 nM.

For `C1=C(c2cnc3ccccc3c2)CCC[C@H]1CN1CC=C(c2ccccc2)CC1` [Example 17a, (R)-3-[3-[(3,6-dihydro-4-phenyl-1(2H)-pyridinyl)methyl]-1-cyclohexen-1-yl]quinoline], in assay [1] (setting [4]), the ED50 stood at 1.7 mg/kg. In addition, the half-maximal inhibitory concentration (IC50) in assay [3] (Table 1) turned out to be 1110 nM.

In the case of `C1=C(c2ccccc2)CC(CN2CC=C(c3cccs3)CC2)CC1.Cl` (racemic) [Example 24, (±)-1,2,3,6-tetrahydro-1-[(3-phenyl-3-cyclohexen-1-yl)methyl]-4-(2-thienyl)pyridine monohydrochloride], the ED50 in assay [1] (setting [4]) came out at 1.5 mg/kg. In addition, the IC50 in assay [3] (Table 1) was 170 nM.

For `C1=C(c2ccccc2)CCN(CC2C=C(c3cccs3)CCC2)C1` (racemic) [Example 2a, (±)-1,2,3,6-Tetrahydro-4-phenyl-1-[[3-(2-thienyl)-2-cyclohexen-1-yl]methyl]pyridine], the ED50 in assay [1] (setting [4]) is 2.3 mg/kg. In addition, in assay [3] (Table 1), the IC50 was 400 nM.

Take `Cl.Clc1ccc(C2=CCC[C@@H](CN3CC=C(c4ccccc4)CC3)C2)cc1` [Example 7, (R)-1-[[3-(4-chlorophenyl)-3-cyclohexen-1-yl]methyl]-1,2,3,6-tetrahydro-4-phenylpyridine monohydrochloride]: the ED50 in assay [1] (setting [4]) was determined as 4.4 mg/kg. Besides, the change in vivo at 10 mg/kg in assay [2] (setting [5]) is -18%.

On to `Fc1ccc(C2=CCCC(CN3CC=C(c4ccccc4)CC3)C2)cc1` (racemic) [Example 3, (±)-1-[[3-(4-Fluorophenyl)-3-cyclohexen-1-yl]methyl]-1,2,3,6-tetrahydro-4-phenylpyridine], for which, in assay [1] (setting [4]), the ED50 is 4.2 mg/kg. Besides, in assay [3] (Table 1), the IC50 worked out at 90 nM.

Turning to `C1=C(c2cncnc2)CCC[C@H]1CN1CC=C(c2ccccc2)CC1.Cl.Cl` [Example 14a, (R)-5-[3-[(3,6-dihydro-4-phenyl-1(2H)-pyridinyl)methyl]-1-cyclohexen-1-yl]pyrimidine dihydrochloride], the ED50 in assay [1] (setting [4]) was 0.07 mg/kg.
